Results: ChEMBL document CHEMBL1136896, “Synthesis and biological evaluation of arylhydrazinocyanoacrylates and N-aryl pyrazolecarboxylates” (2009)

Legend:
Type in all cases: functional
HL-60 [1] = assay: Antitumor activity against human HL60 cells at 100 uM/L after 72 hrs by MTT assay; conditions: HL-60, 72 h
[2] = system: Botryosphaeria berengeriana; assay: Fungicidal activity against Physalospora pyricola assessed as inhibition of mycelium growth at 50 mg/L after 72 hrs
Bel-7402 [3] = assay: Antitumor activity against human Bel7402 cells at 100 uM/L after 72 hrs by MTT assay; conditions: Bel-7402, 72 h
HL-60 [4] = assay: Antitumor activity against human HL60 cells at 1 uM/L after 72 hrs by MTT assay; conditions: HL-60, 72 h
Bel-7402 [5] = assay: Antitumor activity against human Bel7402 cells at 1000 uM/L after 72 hrs by MTT assay; conditions: Bel-7402, 72 h
Cladosporium cucumerinum = assay: Fungicidal activity against Cladosporium cucumerinum assessed as inhibition of mycelium growth at 50 mg/L after 72 hrs
Digitaria sanguinalis [6] = assay: Herbicidal activity against Digitaria sanguinalis at 1.5 kg/hectare administered postemergence of first true leaf measured after 10 days; conditions: post-emergence, 240 h
Brassica napus [7] = assay: Herbicidal activity against Brassica napus L. at 1.5 kg/hectare administered preemergence of first true leaf measured after 10 days; conditions: pre-emergence, 240 h
Brassica napus [8] = assay: Herbicidal activity against Brassica napus at 1.5 kg/hectare administered postemergence of first true leaf measured after 10 days; conditions: post-emergence, 240 h
Bel-7402 [9] = assay: Antitumor activity against human Bel7402 cells at 1 uM/L after 72 hrs by MTT assay; conditions: Bel-7402, 72 h
Amaranthus retroflexus [10] = assay: Herbicidal activity against Amaranthus retroflexus at 1.5 kg/hectare administered preemergence of first true leaf measured after 10 days; conditions: pre-emergence, 240 h
HL-60 [11] = assay: Antitumor activity against human HL60 cells at 10 uM/L after 72 hrs by MTT assay; conditions: HL-60, 72 h
Fusarium graminearum = assay: Fungicidal activity against Gibberella zeae assessed as inhibition of mycelium growth at 50 mg/L after 72 hrs
Alternaria solani = assay: Fungicidal activity against Alternaria solani assessed as inhibition of mycelium growth at 50 mg/L after 72 hrs
Medicago sativa [12] = assay: Herbicidal activity against Medicago sativa at 1.5 kg/hectare administered preemergence of first true leaf measured after 10 days; conditions: pre-emergence, 240 h
Digitaria sanguinalis [13] = assay: Herbicidal activity against Digitaria sanguinalis (L.) Scop. at 1.5 kg/hectare administered preemergence of first true leaf measured after 10 days; conditions: pre-emergence, 240 h
Amaranthus retroflexus [14] = assay: Herbicidal activity against Amaranthus retroflexus at 1.5 kg/hectare administered postemergence of first true leaf measured after 10 days; conditions: post-emergence, 240 h
Bel-7402 [15] = assay: Antitumor activity against human Bel7402 cells at 10 uM/L after 72 hrs by MTT assay; conditions: Bel-7402, 72 h
Medicago sativa [16] = assay: Herbicidal activity against Medicago sativa at 1.5 kg/hectare administered postemergence of first true leaf measured after 10 days; conditions: post-emergence, 240 h
Mycosphaerella arachidis = assay: Fungicidal activity against Cercospora arachidicola assessed as inhibition of mycelium growth at 50 mg/L after 72 hrs
Cucumis sativus = assay: Growth regulatory activity in cucumber assessed as root growth at 10 mg/L incubated in dark for 5 days
HL-60 [17] = assay: Antitumor activity against human HL60 cells at 1000 uM/L after 72 hrs by MTT assay; conditions: HL-60, 72 h

Row | SMILES | inhibition at 100 µM (HL-60 [1]) [%] | inhibition at 50 µg/mL [2] [%] | inhibition at 100 µM (Bel-7402 [3]) [%] | inhibition at 1 µM (HL-60 [4]) [%] | inhibition at 1000 µM (Bel-7402 [5]) [%] | inhibition at 50 µg/mL (Cladosporium cucumerinum) [%] | inhibition at 1500 g/ha (Digitaria sanguinalis [6]) [%] | inhibition at 1500 g/ha (Brassica napus [7]) [%] | inhibition at 1500 g/ha (Brassica napus [8]) [%] | inhibition at 1 µM (Bel-7402 [9]) [%] | inhibition at 1500 g/ha (Amaranthus retroflexus [10]) [%] | inhibition at 10 µM (HL-60 [11]) [%] | inhibition at 50 µg/mL (Fusarium graminearum) [%] | inhibition at 50 µg/mL (Alternaria solani) [%] | inhibition at 1500 g/ha (Medicago sativa [12]) [%] | inhibition at 1500 g/ha (Digitaria sanguinalis [13]) [%] | inhibition at 1500 g/ha (Amaranthus retroflexus [14]) [%] | inhibition at 10 µM (Bel-7402 [15]) [%] | inhibition at 1500 g/ha (Medicago sativa [16]) [%] | inhibition at 50 µg/mL (Mycosphaerella arachidis) [%] | also measured
1 | CCOCCOC(=O)c1c(SC)nn(-c2ccc(Cl)cc2Cl)c1N | 16.9 | 46.7 | 0 | 4.3 | 46.7 | 32.7 | 0 | 30 | 0 | 0 | 0 | 8.4 | 42.2 | 16 | 0 | 0 | 0 | 0 | 0 | 47.1 | Activity (Cucumis sativus): 17.8%; inhibition at 1000 µM (HL-60 [17]): 56.1%
2 | CCOCCOC(=O)c1c(C(C)C)nn(-c2ccc(Cl)cc2Cl)c1N | 11.8 | 9.3 | 4.2 | 4.4 | 45.6 | 30.9 | 0 | 0 | 0 | 5.5 | 0 | 4.4 | 26.7 | 28 | 0 | 0 | 0 | 0 | 16.6 | 44.1 | Activity (Cucumis sativus): -2.4%; inhibition at 1000 µM (HL-60 [17]): 56.8%
3 | CCOCCOC(=O)c1c(SC)nn(-c2ccccc2)c1N | 0.6 | 0 | 0 | 4.3 | 49 | 12.7 | 0 | 0 | 53.6 | 0 | 10 | 6.8 | 42.2 | 8 | 0 | 0 | 32 | 0 | 38.3 | 41.2 | Activity (Cucumis sativus): 50.4%; inhibition at 1000 µM (HL-60 [17]): 10.6%
